Tested on: iMC-expressing T cells
Experiment: Survival and growth of iMC-transduced T cells with weekly rimiducid, with or without IL-2
Type: cell-based, human
Description: FIGS. 8A-8C provide assay results of iMC signaling in primary T cells induces cell survival in the absence of IL-2. FIG. 8A and FIG. 8B) FKBP and iMC transduced T cells were cultured in media supplemented with or without 100 U/ml IL-2 and stimulated on a weekly basis with 10 nM rimiducid (CID) and measured for growth by cell counting. FIG. 8C) iMC-modified T cells cultured in media without IL-2, with and without CID stimulation, were measured for viability by flow cytometry (SSC, FSC) after 42 days in culture. * indicates p-value <0.05.
The phosphorylation of key downstream signaling molecules, including JNK, Akt, RelA, ERK and p38 MAPK was measured in the induced iMC T cells.

SMILES: CC[C@H](C(=O)N1CCCC[C@H]1C(=O)O[C@H](CCc1ccc(OC)c(OC)c1)c1cccc(OCC(=O)NCCNC(=O)COc2cccc([C@@H](CCc3ccc(OC)c(OC)c3)OC(=O)[C@@H]3CCCCN3C(=O)[C@@H](CC)c3cc(OC)c(OC)c(OC)c3)c2)c1)c1cc(OC)c(OC)c(OC)c1 (relative stereo) [rimiducid, 2-Piperidinecarboxylic acid, 1-[(2S)-1-oxo-2-(3,4,5-trimethoxyphenyl)butyl]-, 1,2-ethanediylbis [imino(2-oxo-2,1-ethanediyl)oxy-3,1-phenylene[(1R)-3-(3,4-Dimethoxyphenyl)propylidene]] ester, [2S-[1(R*),2R*[S*[S*[1(R*),2R*]]]]]-(9Cl)]
- T cell proliferation (IL-2 withdrawn): no proliferation was observed
- T cell survival and expansion (in the presence of exogenous IL-2): increased T cell survival and cell expansion
